In ChEMBL document CHEMBL3860070, “Optimization and biological evaluation of celastrol derivatives as Hsp90-Cdc37 interaction disruptors with improved druglike properties” (Bioorg Med Chem, 2016):

Assays:
[1] = Antiproliferative activity against human MCF7 cells assessed as reduction in cell viability after 48 hrs by MTT assay; type: functional, cell-based; conditions: MCF7, 48 h
[2] = Antiproliferative activity against human A549 cells assessed as reduction in cell viability after 48 hrs by MTT assay; type: functional, cell-based; conditions: A549, 48 h
[3] = Antiproliferative activity against human PANC1 cells assessed as reduction in cell viability after 48 hrs by MTT assay; type: functional, cell-based; conditions: PANC-1, 48 h
[4] = Permeability of the compound at pH 7.4 by PAMPA-based pION assay; type: ADME; conditions: read-out: permeability
Homo sapiens = organism: Homo sapiens; assay: Inhibition of His-tagged full length Hsp90/GST-tagged Cdc37 middle domain (unknown origin) interaction at 50 uM after 1 hr by TR-FRET assay relative to control
[5] = Inhibition of His-tagged full length Hsp90/GST-tagged Cdc37 middle domain (unknown origin) interaction after 1 hr by TR-FRET assay; set-up: species or system Homo sapiens
[6] = Antiproliferative activity against paclitaxel-resistant human A549 cells assessed as reduction in cell viability after 48 hrs by MTT assay; type: functional, cell-based; conditions: A549, 48 h

Compound	IC50 [1] [nM]	IC50 [2] [nM]	IC50 [3] [nM]	Papp [4] [×10⁻⁶ cm/s]	inhibition (Homo sapiens) [%]	IC50 [5] [nM]	IC50 [6] [nM]
CC1=C(O)C(=O)C=C2C1=CC=C1[C@@]2(C)CC[C@@]2(C)[C@@H]3C[C@](C)(C(=O)NCCCn4ccnc4)CC[C@]3(C)CC[C@]12C	1840	3370	1530	0.6	71.7		
CC1=C(O)C(=O)C=C2C1=CC=C1[C@@]2(C)CC[C@@]2(C)[C@@H]3C[C@](C)(C(=O)O)CC[C@]3(C)CC[C@]12C [CELASTROL]	2130	2020	2480	13.3	91.8	6490	2010
CC1=C(O)C(=O)C=C2C1=CC=C1[C@@]2(C)CC[C@@]2(C)[C@@H]3C[C@](C)(C(=O)NCCN4CCCC4)CC[C@]3(C)CC[C@]12C	1100	670	1030	23	89.2	6500	
CNC(=O)[C@]1(C)CC[C@]2(C)CC[C@]3(C)C4=CC=C5C(=CC(=O)C(O)=C5C)[C@]4(C)CC[C@@]3(C)[C@@H]2C1	1200	1930	1420		69.2		
CC1=C(O)C(=O)C=C2C1=CC=C1[C@@]2(C)CC[C@@]2(C)[C@@H]3C[C@](C)(C(=O)N(C)C)CC[C@]3(C)CC[C@]12C	1430	1810	2660		60.6		
CC1=C(O)C(=O)C=C2C1=CC=C1[C@@]2(C)CC[C@@]2(C)[C@@H]3C[C@](C)(C(=O)NCCS(C)(=O)=O)CC[C@]3(C)CC[C@]12C	1300	2410	1200		69.8		
CC1=C(O)C(=O)C=C2C1=CC=C1[C@@]2(C)CC[C@@]2(C)[C@@H]3C[C@](C)(C(=O)NCCN4CCCCC4)CC[C@]3(C)CC[C@]12C	1180	840	1250	18.1	75.7		
COC(=O)[C@]1(C)CC[C@]2(C)CC[C@]3(C)C4=CC=C5C(=CC(=O)C(O)=C5C)[C@]4(C)CC[C@@]3(C)[C@@H]2C1 [PRISTIMERIN]	1570	1400	1490		60.5		
CC1=C(O)C(=O)C=C2C1=CC=C1[C@@]2(C)CC[C@@]2(C)[C@@H]3C[C@](C)(C(=O)N4CCCC4)CC[C@]3(C)CC[C@]12C	1810	2850	2110		56.4		
CC1=C(O)C(=O)C=C2C1=CC=C1[C@@]2(C)CC[C@@]2(C)[C@@H]3C[C@](C)(C(=O)OCC(C)C)CC[C@]3(C)CC[C@]12C	2060	3420	1900		28.4		
CC(=O)NCCNC(=O)[C@]1(C)CC[C@]2(C)CC[C@]3(C)C4=CC=C5C(=CC(=O)C(O)=C5C)[C@]4(C)CC[C@@]3(C)[C@@H]2C1	2260	3120	3000		70.5		
CCN(CC)CCNC(=O)[C@]1(C)CC[C@]2(C)CC[C@]3(C)C4=CC=C5C(=CC(=O)C(O)=C5C)[C@]4(C)CC[C@@]3(C)[C@@H]2C1	1030	710	1270	53.1	94.5	5740	
